Earlier results on two compounds are cited in patent US20220257562A1, “METHOD FOR IMPROVING ENDOMETRIOSIS AND METHOD FOR PRODUCING A MATERIAL USED THEREFOR” (NICHIMO CO., LTD., priority 2017, published 2022).

The structures appear in SMILES notation.

For one data set, the system named is MCF-7. As to conditions: for effect on tamoxifen: MCF-7 / mammary tumors, Non-patent Literature 15, 17; for cell proliferation of estrogen-dependent breast cancer cells (MCF-7): Non-patent Literature 14, 16.
In another data set the target is ERβ (Homo sapiens, UniProt Q92731). As to conditions: Non-Patent Literature 23.
Sequence of ERβ (Q92731 whole entry, species assumed): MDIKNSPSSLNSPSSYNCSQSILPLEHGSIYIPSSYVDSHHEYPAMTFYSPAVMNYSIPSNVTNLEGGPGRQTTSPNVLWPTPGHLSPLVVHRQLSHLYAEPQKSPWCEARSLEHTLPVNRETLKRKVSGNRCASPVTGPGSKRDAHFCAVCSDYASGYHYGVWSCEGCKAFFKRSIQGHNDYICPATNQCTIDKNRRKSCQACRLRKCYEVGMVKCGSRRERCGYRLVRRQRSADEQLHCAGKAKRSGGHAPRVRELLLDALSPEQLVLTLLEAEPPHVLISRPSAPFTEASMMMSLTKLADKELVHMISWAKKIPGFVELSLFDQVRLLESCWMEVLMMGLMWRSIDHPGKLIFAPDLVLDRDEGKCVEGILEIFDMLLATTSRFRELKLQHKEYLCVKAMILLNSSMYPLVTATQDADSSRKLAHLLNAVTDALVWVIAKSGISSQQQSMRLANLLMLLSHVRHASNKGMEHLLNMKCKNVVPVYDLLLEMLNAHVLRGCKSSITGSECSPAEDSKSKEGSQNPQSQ

For `O=c1c(-c2ccc(O)cc2)coc2cc(O)cc(O)c12` [Genistein, genistein], in the data set with MCF-7, the effect on tamoxifen entry was “attenuates the inhibitory effect of tamoxifen” and the “cell proliferation of estrogen-dependent breast cancer cells (MCF-7)” value is on record as “promotes cell proliferation”.
With `O=c1c(-c2ccc(O)cc2)coc2cc(O)ccc12` [daidzein], the “binding to ERβ” value on ERβ was “binds weakly”. Also, in the data set on MCF-7, the effect on tamoxifen result is on record as “improved the therapeutic effect of tamoxifen” and the “cell proliferation of estrogen-dependent breast cancer cells (MCF-7)” value was “suppressed the proliferation”.
